In patent US20230142062A1, “THE APPLICATION OF ALOESIN IN THE PREPARATION OF PRODUCTS FOR PREVENTING OR TREATING OBESITY” (HAINAN MEDICAL UNIVERSITY, priority 2020, published 2023):

Experiments:
Assay type in all cases: cell-based, mouse
3T3-L1 preadipocytes [1] = assay: MTT cell viability of 3T3-L1 preadipocytes; details: 15 and 30 μM aloesin, 24 h and 48 h
Description: (§1) Mouse 3T3-L1 preadipocytes were inoculated with high glucose culture medium (H-DMEM, Hyclon) containing 10% fetal bovine serum (Gibco) and antibiotics (100 U/mL penicillin G and […] streptomycin) at a density of 1×10^4 /mL in an incubator at 37° C. and 5% CO2 for 72 hours. In order to induce the differentiation of 3T3-L1 preadipocytes, when 80% cells are fused, on day 0, growth medium (GM) containing 10% fetal bovine serum, 10 μg/mL insulin (sigma), 1 μM dexamethasone (sigma), 0.5 mM isobutyl-1-Methylxanthine (sigma) was added therein. On the second day, the medium was replaced with a high-glycemic medium containing 10% calf serum and 10 μg/mL insulin. On the 10th day, a large number of lipid droplets accumulated during the differentiation of pre-adipocytes.
Cell viability was determined by MTT, 3T3-L1 preadipocytes were seeded in 96-well plates at a density of 1×10^4 /mL, cultured in an incubator for 24 hours, and then replaced with a medium respectively containing 10, 15, 30 and 60 μM aloesin to continuously cultivate for 24 h or 48 h. 0.5% MTT was added to the cells, after incubating for 1 hour at 37° C., the MTT solution was removed, and DMSO was added to dissolve. The absorbance at 570 nm was measured using an enzyme-labeled instrument (Molecular Devices, CA, USA). Cell viability (%) is expressed as a percentage relative to untreated control cells.

3T3-L1 preadipocytes [2] = assay: Differentiation of preadipocytes after aloesin pretreatment (Oil Red O staining); details: pretreated with 15 and 30 μM for 24 h and 48 h, then differentiated for 10 days
Description: as §1
(§2) The differentiated adipocytes were washed 3 times with PBS, fixed with 10% formaldehyde for 1 hour, then washed 3 times with PBS again, dried for 15 to 30 minutes and stained with Oil Red O working solution for 2 hours. Wash 2 times and 3 times with 60% isopropanol (IPA) and double distilled water respectively. A Zeiss fluorescence microscope (Tokyo, Japan) was used to collect images. 100% IPA extracts Oil Red O, and the absorbance at 490 nm was measured.
3T3-L1 pre-adipocytes were pre-incubated by the aloesin with concentration of 15 and 30 μM for 24 h and 48 h, respectively. […]

3T3-L1 adipocytes = assay: Lipid accumulation in 3T3-L1 adipocytes (Oil Red O staining); details: 15 and 30 μM
Description: as §1, §2
After 3T3-L1 preadipocytes were induced to differentiate into adipocytes, aloesin (15 and 30 μM) was added to the adipocytes and cultured for 24 h and 48 h respectively.

UCP-1 = assay: Real-time quantitative PCR, UCP-1 mRNA in 3T3-L1 adipocytes; details: qPCR
Description: (§3) Total RNA extraction reagent (TIANGEN, China) was used to extract total RNA from 3T3-L1 adipocytes. Use 1st strand cDNA kit (Vazyme biotechnology) for reverse transcription into cDNA. SYBR Green PCR Master Mix Kit (Monad, China) reagent and CFX-1000 Touch instrument ([…]) were used to detect the mRNA level of adipocyte browning genes (Ucp-1 and PRDM16) and transcription factors (Fabp, Ppar-γ and C-EBPα). The following conditions were used for reverse transcription: 5 min at 25° C., 15 min at 50° C., and 5 min at 85° C. Amplification: initial denaturation at 95° C. for 30 seconds, followed by denaturation at 95° C. for 5 seconds and 59° C. for 30 seconds (40 cycles). The β-actin was used as a reference gene to standardize the qPCR reaction. The relative expression of genes was calculated based on the average Ct value between samples. Relative expression level=2^{[Cttarget gene−Ct (β-actin)]aloesin treatment group−[Cttarget gene−Ct(β-actin)] 3T3-L1adipocyte]}.

PRDM16 = assay: Real-time quantitative PCR, PRDM16 mRNA in 3T3-L1 adipocytes; details: qPCR
Description: as §3

C-EBPα = assay: Real-time quantitative PCR, C-EBPα mRNA in 3T3-L1 adipocytes; details: 15 and 30 μM, qPCR
Description: as §3

FABP = assay: Real-time quantitative PCR, FABP mRNA in 3T3-L1 adipocytes; details: 15 and 30 μM, qPCR
Description: as §3

PPAR-γ = assay: Real-time quantitative PCR, PPAR-γ mRNA in 3T3-L1 adipocytes; details: 15 and 30 μM, qPCR
Description: as §3

adiponectin [3] = assay: Real-time quantitative PCR, adiponectin mRNA in 3T3-L1 adipocytes; details: 15 μM, qPCR
adiponectin [4] = assay: ELISA, adiponectin in supernatant of 3T3-L1 adipocytes; details: 15 μM, 48 hours
Description: (§4) The 3T3-L1 adipocytes were treated with aloesin for 48 hours, then the supernatant was collected, and the levels of adiponectin and IL-1β in the supernatant were detected with an ELISA kit (Proteintech, China). The ELISA reagent operation was carried out according to the manufacturer's instructions.

IL-1β = assay: ELISA, IL-1β in supernatant of 3T3-L1 adipocytes; details: 15 and 30 μM, 48 hours
Description: as §4

CC(=O)Cc1cc(=O)c2c(C)cc(O)c([C@@H]3O[C@H](CO)[C@@H](O)[C@H](O)[C@H]3O)c2o1 [aloesin]
pre-adipocytes viability (3T3-L1 preadipocytes [1]): did not influence | differentiation of 3T3-L1 preadipocytes (3T3-L1 preadipocytes [2]): did not affect | lipid accumulation of adipocytes (3T3-L1 adipocytes; 48 h, compared with the control group): significantly reduce | lipid accumulation in 3T3-L1 adipocytes (3T3-L1 adipocytes; treatment for 24 hours): did not affect | expression of browning gene UCP-1 (mRNA) (UCP-1): increase | expression of browning gene PDRM16 (mRNA) (PRDM16): increase | expression of the transcription factor C-EBPα (mRNA) (C-EBPα): increase | expression of FABP (mRNA) (FABP): did not affect | expression of PPAR-γ (mRNA) (PPAR-γ): did not affect | mRNA expression of adiponectin in adipocytes (adiponectin [3]): enhance | release of adiponectin in adipocytes (adiponectin [4]): enhance | release of IL-1β in adipocytes (IL-1β): reduce
